According to publication PMC4802308, “Integrating computational and chemical biology tools in the discovery of antiangiogenic small molecule ligands of FGF2 derived from endogenous inhibitors” (Scientific Reports, 2016):

What was measured:
[1] = system: FGF2-induced angiogenesis; assay: Chorioallantoic membrane (CAM) assay; type: in vivo, White Leghorn chicken; details: FGF2 200 ng, compound 0.5 μg
Method: Figure 4 Biological activity of the selected hits. (A) Endothelial cell proliferation. BAEC were exposed to FGF2 (5 ng/ml) with increasing concentrations of molecules (3–80 μM). After 72 h, cells were stained and proliferation measured as absorbance. Data are the percentage of control proliferation (in absence of molecules), mean of value from 2 experiments performed in triplicate. (B–D) Aortic ring assay. Sections of murine aortas were embedded in Matrigel, in the presence of FGF2 (30 ng/ml) and the indicated small molecule. The formation of capillary structures sprouting from the rings was analyzed after 7 and 11 days as described in Methods, and the angiogenic response expressed as area covered by the sprouting structures (arbitrary units, mean and SE, n ≥ 6). (B) Antiangiogenic activity of the small molecules (100 μM). […] (E) Angiogenic response is evaluated 4 days later, and expressed as number of vessels entering the sponge (mean and SD). […]
Fertilized White Leghorn chicken eggs were incubated at 37 °C at constant humidity. […] At day 12, CAMs were photographed in ovo under a stereomicroscope (Olympus), and blood vessels entering the sponge within the focal plane of the CAM were counted by two observers in double blind.

FGF2 [2] = target: T1, FGF2 (Homo sapiens, UniProt P09038); assay: Competition with biotinylated recombinant TSP-1 domain (E123CaG1) for binding to FGF2 (DELFIA); details: for IC50: mean ± SE of 3 experiments; for fold more active than the initial query SM27 (competition IC50): vs SM27
T1 construct: purchased R&D Systems, obtained through the NCI-Biological Resources Branch

FGF2 [3] = target: T1, FGF2; assay: as above; details: Fig. 6B
Text: Of the identified hits, 23 (Fig. 1 and Suppl. Table S1), made available from the NCI (NIH), were subjected to experimental analysis of FGF2 binding. We used an indirect assay, based on the competition of the tested molecules with the recombinant TSP-1 type III domain for binding to FGF2, an approach previously employed to analyze the FGF2/SM27 binding.
Figure 2 FGF2-binding property of the selected hits, analyzed with an indirect assay, as ability to compete with the TSP-1 fragment E123CaG1 (comprising the type III repeats domain) for FGF2 binding, as described in Methods. Binding of the biotinylated recombinant domain to FGF2 in the presence or absence of each molecule (5 μM). Data are the percentage of control binding, mean and SE of 3 experiments performed in triplicate. *p < 0.05 compared to control (ANOVA followed by Bonferroni test).
DELFIA® Microtitration plates and reagents were from PerkinElmer. Plates were coated overnight at 4 °C with FGF2 (0.1 μg in 40 μl /well PBS). After washing, non-specific binding sites were saturated by a 30 minute incubation with PBS 1% BSA. The biotin-labeled recombinant TSP-1 fragment (10 nM) was added in 40 μl PBS 1% BSA with or without the indicated concentration of small molecules, and incubated for 3 h at room temperature. The plates were washed with PBS 0.1% BSA and incubated for 1 h with 100 μl/well Eu-Labeled Streptavidin 1:1000 at room temperature. After washing, plates were incubated with DELFIA® Enhancement Solution. Time resolved fluorescence was measured using a Victor[3] multilabel plate reader (PerkinElmer).

FGF2 [4] = target: T2, FGF2 (Homo sapiens, UniProt P09038, A3E/C211S/C229S/S5E); assay: NMR titration (1H-15N HSQC) of 15N-labeled FGF2; type: binding; details: pH 5.5, 25 °C
T2 construct: purchased ASLA (Riga, Latvia)
Method: In order to investigate whether the functionalized phenylamino-substituted naphthalenes maintained the ability of TSP-1 and SM27 to target the heparin interaction site of FGF2[16][21], interaction studies between SM.1–31 or SM.1–34 (showing the highest activity) and FGF2 were performed by NMR. Each SM was titrated into a solution of ^15N-enriched FGF2 protein and a series of 2D ^1H^15N-HSQC experiments were recorded to follow the protein changes induced by the ligand. […] Residues showing the highest perturbations are Arg129 and Lys144, as previously observed for SM27, pointing to similar interactions that likely involve inhibitors SO3 groups.
NMR samples contained 0.57 mM ^15N-labeled FGF2, dissolved in a buffer containing 50 mM potassium phosphate, 2 mM NaN3, and 10 mM deuterated DTT in 90% H2O/10% D2O, pH 5.5. For the identification of the binding region, SM.1–34 and SM.1–31 were incrementally added to protein solutions up to SM:FGF2 stoichiometric ratio of 3. NMR data were collected on a Bruker DMX 500 MHz spectrometer at 25 °C. 2D ^1H-^15N HSQC spectra were recorded with a sweep width of 13 ppm (^1H) and 40 ppm (^15N). 1k × 128 data points were used in proton and nitrogen dimensions, respectively. Data, acquired and processed using Topspin (Bruker Biospin), were apodized with a squared sinebell shifted by 90° and polynomial baseline correction. […]

BAEC = assay: FGF2-induced endothelial cell proliferation assay; type: cell-based, Bovine; details: FGF2 5 ng/ml, 72 h
Method: Figure 4 Biological activity of the selected hits. (A) Endothelial cell proliferation. BAEC were exposed to FGF2 (5 ng/ml) with increasing concentrations of molecules (3–80 μM). After 72 h, cells were stained and proliferation measured as absorbance. Data are the percentage of control proliferation (in absence of molecules), mean of value from 2 experiments performed in triplicate. (B–D) Aortic ring assay. Sections of murine aortas were embedded in Matrigel, in the presence of FGF2 (30 ng/ml) and the indicated small molecule. The formation of capillary structures sprouting from the rings was analyzed after 7 and 11 days as described in Methods, and the angiogenic response expressed as area covered by the sprouting structures (arbitrary units, mean and SE, n ≥ 6). (B) Antiangiogenic activity of the small molecules (100 μM). (C) Examples of time-dependent and dose-dependent effect of two compounds (SM.2–20 and SM.2–23), tested at 100 (diamond), 50 (circle) and 25 μM (triangle) compared to control (black squares). (D) Representative pictures of sprouting from control and SM.2–23 treated aortic sections. […] (E) Angiogenic response is evaluated 4 days later, and expressed as number of vessels entering the sponge (mean and SD). […]
BAEC (2500 cells/well) were plated in 96-well plates in DMEM 1.5% FCS. […] Plates were then stained with crystal violet or MTS and analyzed as described.

FGF2 mitogenic activity = system: FGF2 mitogenic activity; set-up: method as in PMID 12676958; details: read-out: IC50, inhibition of FGF2 mitogenic activity; cited from earlier work
[5] = system: FGF2-induced vessels sprouting, murine aortic rings; assay: Aortic rings assay (FGF2-induced vessels sprouting, 3D Matrigel); set-up: species or system C57BL/6 mice; details: FGF2 30 ng/ml, small molecules 100 μM
Method: Figure 4 Biological activity of the selected hits. (A) Endothelial cell proliferation. BAEC were exposed to FGF2 (5 ng/ml) with increasing concentrations of molecules (3–80 μM). After 72 h, cells were stained and proliferation measured as absorbance. Data are the percentage of control proliferation (in absence of molecules), mean of value from 2 experiments performed in triplicate. (B–D) Aortic ring assay. Sections of murine aortas were embedded in Matrigel, in the presence of FGF2 (30 ng/ml) and the indicated small molecule. The formation of capillary structures sprouting from the rings was analyzed after 7 and 11 days as described in Methods, and the angiogenic response expressed as area covered by the sprouting structures (arbitrary units, mean and SE, n ≥ 6). (B) Antiangiogenic activity of the small molecules (100 μM). (C) Examples of time-dependent and dose-dependent effect of two compounds (SM.2–20 and SM.2–23), tested at 100 (diamond), 50 (circle) and 25 μM (triangle) compared to control (black squares). (D) Representative pictures of sprouting from control and SM.2–23 treated aortic sections. Original magnification, 20x. (E,F) Chorioallantoic membrane assay. FGF2 (200 ng) was administered in the absence or presence of the indicated compound (0.5 μg) on day 8 (n = 10). (E) Angiogenic response is evaluated 4 days later, and expressed as number of vessels entering the sponge (mean and SD). (F) Representative pictures are shown. Original magnification, 50x.
Thoracic aortas were removed from mice, cleaned of perivascular adipose tissue and cut into 1 mm segments. Matrigel (75 μl, BD Biosciences) was added to 96 well plates, and allowed to gellify at 37 °C for 30 min. Aortic sections were added to the wells, and covered with a second layer of Matrigel and DMEM 5% FCS containing FGF2 (30 ng/ml) and the indicated concentration of the compounds. The formation of capillary structures sprouting from the rings was analyzed after 4, 7 and 11 days with an inverted-phase contrast microscope (IX70; Olympus). Images were analyzed with ImageJ 1.48, and the angiogenic response expressed as area covered by the sprouting structures (arbitrary units), substracted the area of the aortic section.

FGF2 [6] = target: T1, FGF2; assay: SPR direct binding to sensorchip-immobilized FGF2; details: single site model, one experiment representative of two, read-out: Kd (dissociation constant) of FGF2/compound interaction
Method: SPR measurements were performed on a BIAcore X100 instrument (GE-Healthcare, WI). FGF2 was immobilized on a CM5 sensorchip (GE-Healthcare) as described, allowing the immobilization of 7,365 resonance units (RU) (410 fmol/mm^2 of FGF-2).
Suppl. Table S2. Determination of the affinity (Kd) of the FGF2/compound interactions by
Binding parameters were calculated by the non-linear curve fitting software package BIAevaluation
3.2 using a single site model with correction for mass transfer. Dissociation constant (Kd) values
were derived from the dissociation rate/association ratio. Only sensorgrams whose fitting gave
values of X2 lower than 10 were used {Khalifa, 2001 #213}.

T1 sequence (P09038 134-288 limits assumed): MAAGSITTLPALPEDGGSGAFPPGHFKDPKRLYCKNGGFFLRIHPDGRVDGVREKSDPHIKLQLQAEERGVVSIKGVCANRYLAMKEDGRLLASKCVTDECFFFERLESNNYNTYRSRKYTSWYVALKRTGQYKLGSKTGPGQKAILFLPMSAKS
T2 sequence (P09038 with tags, fused parts or gaps isoform P09038-2 C78S/C96S limits assumed): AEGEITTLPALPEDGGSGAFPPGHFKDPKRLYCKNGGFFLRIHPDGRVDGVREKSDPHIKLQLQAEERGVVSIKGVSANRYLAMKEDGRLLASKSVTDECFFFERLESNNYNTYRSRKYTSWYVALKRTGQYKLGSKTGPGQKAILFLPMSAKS

Nc1cccc(/N=N/c2c(S(=O)(=O)O)cc3cc(NC(=O)Nc4ccc5c(O)c(/N=N/c6cccc(N)c6)c(S(=O)(=O)O)cc5c4)ccc3c2O)c1 [SM.2–18, 3-((E)-(3-aminophenyl)diazenyl)-7-(3-(6-((E)-(3-aminophenyl)diazenyl)-5-hydroxy-7-sulfonaphthalen-2-yl)ureido)-4-hydroxynaphthalene-2-sulfonic acid]
inhibition of FGF2-induced angiogenesis in the CAM assay [1]: active | IC50 (FGF2 [2]): 0.61 ± 0.06 µM | fold more active than the initial query SM27 (competition IC50) (FGF2 [2]): 6–11 fold

O=S(=O)([O-])c1cc(S(=O)(=O)[O-])c2ccc(Nc3ccccc3)cc2c1O.[Na+].[Na+] [SM.1–34, sodium 4-hydroxy-6-(phenylamino)naphthalene-1,3-disulfonate]
ability to bind FGF2 in the competition assay (phenylamino-substituted naphthalenes) (FGF2 [3]): most active | affinity for FGF2 indicated by NMR titration (FGF2 [4]): high micromolar range

O=S(=O)([O-])c1cccc2cc(Nc3ccccc3)ccc12.[Na+] [SM.1–31, sodium 6-(phenylamino)naphthalene-1-sulfonate]
ability to bind FGF2 in the competition assay (phenylamino-substituted naphthalenes) (FGF2 [3]): most active | inhibition of FGF2-induced endothelial cell proliferation (antiproliferative activity) (BAEC): increased activity | affinity for FGF2 indicated by NMR titration (FGF2 [4]): high micromolar range

Nc1cccc2cc(S(=O)(=O)O)ccc12 [5-amino-2-naphthalenesulfonate]
IC50 (FGF2 mitogenic activity): 265 µM

Cc1ccc(C)c(/N=N/c2c(S(=O)(=O)O)cc3cc(NC(=O)Nc4ccc5c(O)c(/N=N/c6ccc7cc(S(=O)(=O)O)ccc7c6)c(S(=O)(=O)O)cc5c4)ccc3c2O)c1 [SM.2–24, 3-((E)-(2,5-dimethylphenyl)diazenyl)-4-hydroxy-7-(3-(5-hydroxy-7-sulfo-6-((E)-(6-sulfonaphthalen-2-yl)diazenyl)naphthalen-2-yl)ureido)naphthalene-2-sulfonic acid]
inhibition of FGF2-induced vessels sprouting [5]: significantly inhibited | Kd (FGF2 [6]): 0.111 µM | inhibition of FGF2-induced angiogenesis in the CAM assay [1]: active | IC50 (FGF2 [2]): 0.46 ± 0.1 µM | fold more active than the initial query SM27 (competition IC50) (FGF2 [2]): 6–11 fold

Oc1cccc2ccc(Nc3ccccc3)cc12 [SM.1–33, 8-hydroxy-N-phenylanaphthalen-2-aminium chloride]
ability to bind FGF2 in the competition assay (phenylamino-substituted naphthalenes) (FGF2 [3]): inactive | inhibition of FGF2-induced endothelial cell proliferation (antiproliferative activity) (BAEC): significant loss of activity
